From US20020137929A1, “1 - (3-heterocyclylphenyl) isothiourea, -isourea, -guanidine and -amidine herbicidal agents” (Intellectual Property Department, BASF Aktiengesellschaft, priority 1998, published 2002)

Columns and labels:
[1] = tested on: ECHORC (Watergrass (Calif.)); assay: Preemergence weed control under flooded paddy conditions; type: in vivo, Echinochloa oryzoides; conditions: rated 3-4 weeks after treatment
Method in brief: (§1)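 Herbicidal effect is scored visually on a 0-9 scale against an untreated control, three to four weeks after compounds are pipetted into the flood water (1.5 to 3 cm deep) over seeds planted in silt loam at 0.5 cm depth. Rates: about 0.0313 to 0.500 kg/ha.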

[2] = tested on: ZEAMX (Corn, Field); assay: Preemergence herbicidal evaluation; type: in vivo, Zea mays; conditions: rated 4-5 weeks after treatment
Method in brief: (§2)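 Scores use a 0–9 visual scale covering stand, vigor, malformation, size and chlorosis relative to controls, rated four to five weeks after treatment. Before emergence, soil-planted seeds were sprayed with compound in aqueous acetone at roughly 0.0156–0.500 kg/ha and held in the greenhouse.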

[3] = tested on: IPOHE (Morningglory, Ivyleaf); assay: Postemergence herbicidal evaluation; type: in vivo, Ipomoea hederacea; conditions: postemergence
Method in brief: (§3)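 Visual 0–9 rating versus control (stand, vigor, malformation, size, chlorosis, overall appearance), taken four to five weeks post-spray. Two-week-old seedlings received roughly 0.0156–0.500 kg/ha active in acetone/water (50/50) with 0.5% TWEEN 20 via nozzle at 40 psi.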

[4] = tested on: ABUTH (Velvetleaf); assay: Preemergence herbicidal evaluation; type: in vivo, Abutilon theophrasti; conditions: rated 4-5 weeks after treatment
Method in brief: as §2

[5] = tested on: MOOVA (Monochoria); assay: Preemergence weed control under flooded paddy conditions; type: in vivo, Monochoria vaginalis; conditions: rated 3-4 weeks after treatment
Method in brief: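 Values are visual 0-9 scores against a control for a preemergence application into paddy flood water at about 0.0313 to 0.500 kg/ha. Greenhouse duration was three to four weeks.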

[6] = tested on: IPOHE (Morningglory, Ivyleaf); assay: Preemergence herbicidal evaluation; type: in vivo, Ipomoea hederacea; conditions: rated 4-5 weeks after treatment
Method in brief: as §2

[7] = tested on: TRZAWR (Wheat, Winter, cv Riband); assay: Postemergence herbicidal evaluation; type: in vivo, Triticum aestivum; conditions: postemergence
Method in brief: as §3

[8] = tested on: GALAP (Galium); assay: Postemergence herbicidal evaluation; type: in vivo, Galium aparine; conditions: postemergence
Method in brief: as §3

[9] = tested on: CYPIR (Rice Flatsedge); assay: Preemergence weed control under flooded paddy conditions; type: in vivo, Cyperus iria; conditions: rated 3-4 weeks after treatment
Method in brief: as §1

[10] = tested on: SETVI (Foxtail, Green); assay: Postemergence herbicidal evaluation; type: in vivo, Setaria viridis; conditions: postemergence
Method in brief: as §3

[11] = tested on: ECHCG (Barnyardgrass); assay: Preemergence herbicidal evaluation; type: in vivo, Echinochloa crus-galli; conditions: rated 4-5 weeks after treatment
Method in brief: as §2

[12] = tested on: SETVI (Foxtail, Green); assay: Preemergence herbicidal evaluation; type: in vivo, Setaria viridis; conditions: rated 4-5 weeks after treatment
Method in brief: as §2

In the case of `Cn1c(C(F)(F)F)cc(=O)n(-c2cc(N=C3SCC(=O)N3Cc3ccco3)c(Cl)cc2F)c1=O` [Compound 122, 3-{4-Chloro-2-fluoro-5-[(3-furfuryl-4-oxo-2-thiazolidinylidene)amino]phenyl}-1-methyl-6-(trifluoromethyl)-2,4(1H,3H)-pyrimidinedione], the “herbicidal effect rating, ECHORC” value ([1]; 0.0313 kg/ha) is reported as 6.0, the “herbicidal effect rating, ECHORC” value ([1]; 0.0625 kg/ha) is reported as 7.0 and the “herbicidal effect rating, ECHORC” value ([1]; 0.1250 kg/ha) is reported as 7.0. For the same compound, the “herbicidal effect rating, ECHORC” value ([1]; 0.2500 kg/ha) was 7.0, the “Preemergence herbicidal rating ZEAMX” value ([2]; rate 0.0156 kg/ha) was 0.0 and the “Preemergence herbicidal rating ZEAMX” value ([2]; rate 0.0313 kg/ha) was 0.0. For the same compound, the “Preemergence herbicidal rating ZEAMX” value ([2]; rate 0.0625 kg/ha) was 0.0, the “Preemergence herbicidal rating ZEAMX” value ([2]; rate 0.1250 kg/ha) was 0.0 and the “Preemergence herbicidal rating ZEAMX” value ([2]; rate 0.2500 kg/ha) was 0.0. For the same compound, the “Preemergence herbicidal rating ZEAMX” value ([2]; rate 0.5000 kg/ha) was 1.0, the “herbicidal rating IPOHE” value ([3]; rate 0.0156 kg/ha) was 9.0 and the “herbicidal rating IPOHE” value ([3]; rate 0.0313 kg/ha) was 9.0. For the same compound, the “herbicidal rating IPOHE” value ([3]; rate 0.0625 kg/ha) was 9.0, the “herbicidal rating IPOHE” value ([3]; rate 0.1250 kg/ha) was 9.0 and the “Preemergence herbicidal rating ABUTH” value ([4]; rate 0.0156 kg/ha) was 0.0. For the same compound, the “Preemergence herbicidal rating ABUTH” value ([4]; rate 0.0313 kg/ha) was 0.0, the “Preemergence herbicidal rating ABUTH” value ([4]; rate 0.0625 kg/ha) was 4.0 and the “Preemergence herbicidal rating ABUTH” value ([4]; rate 0.1250 kg/ha) was 9.0. For the same compound, the “Preemergence herbicidal rating ABUTH” value ([4]; rate 0.2500 kg/ha) was 9.0, the “Preemergence herbicidal rating ABUTH” value ([4]; rate 0.5000 kg/ha) was 9.0 and the “herbicidal effect rating, MOOVA” value ([5]; 0.0313 kg/ha) was 8.0. The “herbicidal effect rating, MOOVA” value ([5]; 0.0625 kg/ha) was 9.0, the “herbicidal effect rating, MOOVA” value ([5]; 0.1250 kg/ha) was 9.0 and the “herbicidal effect rating, MOOVA” value ([5]; 0.2500 kg/ha) was 9.0. The “Preemergence herbicidal rating IPOHE” value ([6]; rate 0.0156 kg/ha) was 0.0, the “Preemergence herbicidal rating IPOHE” value ([6]; rate 0.0313 kg/ha) was 0.0 and the “Preemergence herbicidal rating IPOHE” value ([6]; rate 0.0625 kg/ha) was 0.0. The “Preemergence herbicidal rating IPOHE” value ([6]; rate 0.1250 kg/ha) was 2.0, the “Preemergence herbicidal rating IPOHE” value ([6]; rate 0.2500 kg/ha) was 1.0 and the “Preemergence herbicidal rating IPOHE” value ([6]; rate 0.5000 kg/ha) was 1.0. The “herbicidal rating TRZAWR” value ([7]; rate 0.0156 kg/ha) was 3.0, the “herbicidal rating TRZAWR” value ([7]; rate 0.0313 kg/ha) was 3.5 and the “herbicidal rating TRZAWR” value ([7]; rate 0.0625 kg/ha) was 4.5. The “herbicidal rating TRZAWR” value ([7]; rate 0.1250 kg/ha) was 5.0, the “herbicidal rating GALAP” value ([8]; rate 0.0156 kg/ha) was 2.0 and the “herbicidal rating GALAP” value ([8]; rate 0.0313 kg/ha) was 2.0. The “herbicidal rating GALAP” value ([8]; rate 0.0625 kg/ha) was 4.0, the “herbicidal rating GALAP” value ([8]; rate 0.1250 kg/ha) was 6.0 and the “herbicidal effect rating, CYPIR” value ([9]; 0.0313 kg/ha) was 4.0. The “herbicidal effect rating, CYPIR” value ([9]; 0.0625 kg/ha) was 7.0, the “herbicidal effect rating, CYPIR” value ([9]; 0.1250 kg/ha) was 7.0 and the “herbicidal effect rating, CYPIR” value ([9]; 0.2500 kg/ha) was 8.0. For the same compound, the “herbicidal rating SETVI” value ([10]; rate 0.0156 kg/ha) was 6.0, the “herbicidal rating SETVI” value ([10]; rate 0.0313 kg/ha) was 7.0 and the “herbicidal rating SETVI” value ([10]; rate 0.0625 kg/ha) was 9.0. The “herbicidal rating SETVI” value ([10]; rate 0.1250 kg/ha) was 9.0, the “Preemergence herbicidal rating ECHCG” value ([11]; rate 0.0156 kg/ha) was 0.0 and the “Preemergence herbicidal rating ECHCG” value ([11]; rate 0.0313 kg/ha) was 0.0. For the same compound, the “Preemergence herbicidal rating ECHCG” value ([11]; rate 0.0625 kg/ha) was 0.0, the “Preemergence herbicidal rating ECHCG” value ([11]; rate 0.1250 kg/ha) was 0.0 and the “Preemergence herbicidal rating ECHCG” value ([11]; rate 0.2500 kg/ha) was 0.0. The “Preemergence herbicidal rating ECHCG” value ([11]; rate 0.5000 kg/ha) was 1.0, the “Preemergence herbicidal rating SETVI” value ([12]; rate 0.0156 kg/ha) was 0.0 and the “Preemergence herbicidal rating SETVI” value ([12]; rate 0.0313 kg/ha) was 0.0. For the same compound, the “Preemergence herbicidal rating SETVI” value ([12]; rate 0.0625 kg/ha) was 0.0, the “Preemergence herbicidal rating SETVI” value ([12]; rate 0.1250 kg/ha) was 1.0 and the “Preemergence herbicidal rating SETVI” value ([12]; rate 0.2500 kg/ha) was 1.0. The “Preemergence herbicidal rating SETVI” value ([12]; rate 0.5000 kg/ha) was 9.0.
